Assay results from patent US20260248972A1, “DUAL RECEPTOR TARGETING RADIOLIGANDS AND USES THEREOF RELATED APPLICATIONS” (priority 2022, published 2026).
Like-named read-outs stand apart in the source and are kept apart here.

Assays:
[1] = in vivo; conditions: BALB/c nude, mouse, in vivo, iv, total radioactivity
Outline: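 Compounds labelled with ^177Lu in 0.5 M NaOAc pH 4.5 at 95° C for 15 min, then used directly or diluted in PBS with 3 mg/mL ascorbate. BALB/c nude mice bore subcutaneous AR42J flank xenografts (0.05-0.50 g). Organs excised at 4, 24 and 72 h post-injection and γ-counted for % ID and % ID/g.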

[2] = target: T1, SSTR2 (Rattus norvegicus, UniProt P30680); assay: Competitive cell-binding assay on AR42J cells with 125I-C1 as competitive ligand; conditions: for IC50: AR42J cells, 125I-C1 competitive ligand, 37° C. 1 h, read-out: SSTR2/IC50
T1 construct: host or cells: AR42J cells
T1 sequence (P30680 whole entry): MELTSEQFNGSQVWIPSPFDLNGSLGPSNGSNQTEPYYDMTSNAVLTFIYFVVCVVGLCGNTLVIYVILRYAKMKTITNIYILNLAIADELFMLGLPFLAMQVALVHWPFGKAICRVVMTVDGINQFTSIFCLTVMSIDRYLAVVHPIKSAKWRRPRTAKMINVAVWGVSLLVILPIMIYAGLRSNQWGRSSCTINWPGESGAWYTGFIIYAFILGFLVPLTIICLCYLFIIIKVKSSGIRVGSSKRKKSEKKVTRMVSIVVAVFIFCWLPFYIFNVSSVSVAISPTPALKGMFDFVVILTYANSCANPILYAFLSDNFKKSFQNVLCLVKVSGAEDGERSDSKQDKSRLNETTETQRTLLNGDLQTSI
Protocol: (§1) AR42J cells (ATCC) were maintained in RPMI-1640 medium (Gibco) supplemented with 15% fetal bovine serum (Gibco) and 1% penicillin-streptomycin (BI) at 37° C. in a humidified incubator with 5% CO2. The culture medium was replaced with fresh medium every 2-3 days. Experiments were performed with cells at 70-80% confluence.
(§2) Binding Affinity Tested by Using ^125I-Labeled Competitive Ligands.
(§3) The binding affinities of test compounds were determined by a competitive cell-binding assay using ^125I-C1 and ^125I-C3 as the competitive ligand. The suspended AR42J cells at a density of 1~3×10^6 cells/mL in binding buffer (RPMI-1640 medium supplemented with 0.25% bovine serum albumin) were transferred to a MultiScreen-DV Filter Plate (Millipore) with 100 μL per well except the blank group where the binding buffer was used instead. The cells were then incubated with ^125I-C1 and ^125I-C3 (0.02 μCi/well) in the presence of increasing concentrations (0-10000 nM) of test compounds at 37° C. for 1 h (n=3). The final volume in each well was maintained at 200 μL and insufficient volume was adjusted by the binding buffer. After the 1 h incubation, unbound ^125I-competitive ligands were removed by filtration using a Multiscreen vacuum manifold (Millipore) followed by rinses with the binding buffer (3 times). The filters were collected, and their radioactivity were individually measured by γ counter (2480 WIZARD2, PerkinElmer). The best-fit IC50value (inhibitory concentration when 50% of the bound ^125I-C1 and ^125l I-C3 on cells were displaced) of test compounds were calculated by fitting the data with nonlinear regression using GraphPad Prism 8.0.1.

[3] = target: T2, CCK2R (Rattus norvegicus, UniProt P30553); assay: Competitive cell-binding assay on AR42J cells with 125I-C3 as competitive ligand; conditions: for IC50: AR42J cells, 125I-C3 competitive ligand, 37° C. 1 h, read-out: CCK2R/IC50
T2 construct: host or cells: AR42J cells
T2 sequence (P30553 1-452): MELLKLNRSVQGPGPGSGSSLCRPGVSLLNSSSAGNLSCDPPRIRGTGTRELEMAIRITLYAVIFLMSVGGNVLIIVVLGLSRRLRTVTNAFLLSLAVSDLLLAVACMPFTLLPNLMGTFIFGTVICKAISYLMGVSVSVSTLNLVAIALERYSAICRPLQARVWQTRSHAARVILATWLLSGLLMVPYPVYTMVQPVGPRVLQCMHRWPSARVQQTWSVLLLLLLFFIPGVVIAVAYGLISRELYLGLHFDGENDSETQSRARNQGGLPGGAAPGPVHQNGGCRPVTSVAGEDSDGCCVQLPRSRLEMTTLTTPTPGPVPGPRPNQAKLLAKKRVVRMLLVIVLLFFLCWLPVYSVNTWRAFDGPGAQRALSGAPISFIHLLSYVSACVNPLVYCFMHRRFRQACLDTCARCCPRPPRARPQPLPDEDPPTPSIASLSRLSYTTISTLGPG
Protocol: as §1, §2, §3

SMILES	Relative Binding Affinity SSTR2 ([2]; based on mean IC50, C-1 = 1.00)	Relative Binding Affinity CCK2R ([3]; based on mean IC50, C-2 = 1.00)	Relative Binding Affinity SSTR2 [2]	Relative Binding Affinity CCK2R [3]	other results
C[C@@H](O)[C@H](NC(=O)[C@@H]1CSSC[C@H](NC(=O)[C@@H](Cc2ccccc2)NC(=O)COCCOCCNC(=O)[C@H](CCCCNC(=O)CN2CCN(CC(=O)O)CCN(CC(=O)O)CCN(CC(=O)O)CC2)NC(=O)CC[C@H](NC(=O)COCCOCCNC(=O)CC[C@H](NC(=O)[C@H](CCC(=O)O)NC(=O)c2cccc(NC(=O)N[C@@H]3CN(C4CCCCC4)c4ccccc4N(CC(=O)C(C)(C)C)C3=O)c2)C(=O)O)C(=O)O)C(=O)N[C@@H](Cc2ccc(O)cc2)C(=O)N[C@H](Cc2c[nH]c3ccccc23)C(=O)N[C@@H](CCCCN)C(=O)N[C@@H]([C@@H](C)O)C(=O)N1)C(=O)O [Compound I-12, (Z360)-E-gE-OEG-gE-K(DOTA)-OEG-f[CYwKTC]T-OH]	0.61	255	–	–	–
C[C@@H](O)[C@H](NC(=O)[C@@H]1CSSC[C@H](NC(=O)[C@@H](Cc2ccccc2)NC(=O)COCCOCCNC(=O)[C@H](CCCCNC(=O)CCC(C(=O)O)N2CCN(CC(=O)O)CCN(CC(=O)O)CCN(CC(=O)O)CC2)NC(=O)COCCOCCNC(=O)c2cccc(NC(=O)N[C@@H]3CN(C4CCCCC4)c4ccccc4N(CC(=O)C(C)(C)C)C3=O)c2)C(=O)N[C@@H](Cc2ccc(O)cc2)C(=O)N[C@H](Cc2c[nH]c3ccccc23)C(=O)N[C@@H](CCCCN)C(=O)N[C@@H]([C@@H](C)O)C(=O)N1)C(=O)O (stereo partly drawn) [Compound I-31, Z360- OEG- K(DOTAGA)- OEG- f[CYwKTC]T- OH]	–	–	4.75	8.8	–
C[C@@H](O)[C@H](NC(=O)[C@@H]1CSSC[C@H](NC(=O)[C@@H](Cc2ccccc2)NC(=O)COCCOCCNC(=O)[C@H](CCCCNC(=O)COCCOCCNC(=O)c2cccc(NC(=O)N[C@@H]3CN(C4CCCCC4)c4ccccc4N(CC(=O)C(C)(C)C)C3=O)c2)NC(=O)CN2CCN(CC(=O)O)CCN(CC(=O)O)CCN(CC(=O)O)CC2)C(=O)N[C@@H](Cc2ccc(O)cc2)C(=O)N[C@H](Cc2c[nH]c3ccccc23)C(=O)N[C@@H](CCCCN)C(=O)N[C@@H]([C@@H](C)O)C(=O)N1)C(=O)O [Compound I-43, DOTA-K(-OEG-Z360)-OEG-f[CYwKTC]T-OH]	–	–	0.61	4.0	–
C[C@@H](O)[C@H](NC(=O)[C@@H]1CSSC[C@H](NC(=O)[C@@H](Cc2ccccc2)NC(=O)[C@H](CCCCNC(=O)COCCOCCNC(=O)COCCOCCNC(=O)COCCOCCNC(=O)c2cccc(NC(=O)N[C@@H]3CN(C4CCCCC4)c4ccccc4N(CC(=O)C(C)(C)C)C3=O)c2)NC(=O)CN2CCN(CC(=O)O)CCN(CC(=O)O)CCN(CC(=O)O)CC2)C(=O)N[C@@H](Cc2ccc(O)cc2)C(=O)N[C@H](Cc2c[nH]c3ccccc23)C(=O)N[C@@H](CCCCN)C(=O)N[C@@H]([C@@H](C)O)C(=O)N1)C(=O)O [Compound I-46, DOTA-K(-OEG-OEG-OEG-Z360)-f[CYwKTC]T-OH]	–	–	0.43	50.2	–

Now from value to molecule, other results behind:

Relative Binding Affinity SSTR2 ([2]; based on mean IC50, C-1 = 1.00)	Relative Binding Affinity CCK2R ([3]; based on mean IC50, C-2 = 1.00)	SMILES	Relative Binding Affinity SSTR2 [2]	Relative Binding Affinity CCK2R [3]	other results
3.50	3.80	C[C@@H](O)[C@H](NC(=O)[C@@H]1CSSC[C@H](NC(=O)[C@@H](Cc2ccccc2)NC(=O)COCCOCCNC(=O)C(CCCCNC(=O)CC[C@H](NC(=O)CNC(=O)c2cccc(NC(=O)N[C@@H]3CN(C4CCCCC4)c4ccccc4N(CC(=O)C(C)(C)C)C3=O)c2)C(=O)O)NC(=O)COCCOCCNC(=O)CC[C@H](NC(=O)CC[C@H](NC(=O)CN2CCN(CC(=O)O)CCN(CC(=O)O)CCN(CC(=O)O)CC2)C(=O)O)C(=O)O)C(=O)N[C@@H](Cc2ccc(O)cc2)C(=O)N[C@H](Cc2c[nH]c3ccccc23)C(=O)N[C@@H](CCCCN)C(=O)N[C@@H]([C@@H](C)O)C(=O)N1)C(=O)O (stereo in doubt) [Compound I-14, DOTA-gE-gE-OEG-K(-gE-G-Z360)-OEG-f[CYwKTC]T-OH]	–	–	tissue to tissue ratio at 24 h ([1]; T/K Tumor/Kidney ratio): 0.2; tissue to tissue ratio at 24 h ([1]; T/L Tumor/Liver ratio): 6.7; tissue to tissue ratio at 24 h ([1]; T/P Tumor/Pancreas ratio): 4.4; tissue to tissue ratio at 24 h ([1]; T/Sp Tumor/Spleen ratio): 27; tissue to tissue ratio at 24 h ([1]; T/St Tumor/Stomach ratio): 6.6; tissue uptake at 24 h ([1]; uptake Kidney): 68.6 %ID/g; tissue uptake at 24 h ([1]; uptake Liver): 2.24 %ID/g; tissue uptake at 24 h ([1]; uptake Pancreas): 3.37 %ID/g; tissue uptake at 24 h ([1]; uptake Spleen): 0.56 %ID/g; tissue uptake at 24 h ([1]; uptake Stomach): 2.25 %ID/g; tissue uptake at 24 h ([1]; uptake Tumor): 14.9 %ID/g
0.29	71.1	C[C@@H](O)[C@H](NC(=O)[C@@H]1CSSC[C@H](NC(=O)[C@@H](Cc2ccccc2)NC(=O)COCCOCCNC(=O)[C@H](CCCCNC(=O)CC[C@H](NC(=O)CNC(=O)c2cccc(NC(=O)N[C@@H]3CN(C4CCCCC4)c4ccccc4N(CC(=O)C(C)(C)C)C3=O)c2)C(=O)O)NC(=O)COCCOCCNC(=O)COCCOCCNC(=O)CC[C@H](NC(=O)CC[C@H](NC(=O)CN2CCN(CC(=O)O)CCN(CC(=O)O)CCN(CC(=O)O)CC2)C(=O)O)C(=O)O)C(=O)N[C@@H](Cc2ccc(O)cc2)C(=O)N[C@H](Cc2c[nH]c3ccccc23)C(=O)N[C@@H](CCCCN)C(=O)N[C@@H]([C@@H](C)O)C(=O)N1)C(=O)O [Compound I-15, DOTA-gE-gE-OEG-OEG-K(-gE-G-Z360)-OEG-f[CYwKTC]T-OH]	–	–	–
0.16	17.3	C[C@@H](O)[C@H](NC(=O)[C@@H]1CSSC[C@H](NC(=O)[C@@H](Cc2ccccc2)NC(=O)COCCOCCNC(=O)COCCOCCNC(=O)[C@H](CCCCNC(=O)CCC(C(=O)O)N2CCN(CC(=O)O)CCN(CC(=O)O)CCN(CC(=O)O)CC2)NC(=O)COCCOCCNC(=O)COCCOCCNC(=O)CC[C@H](NC(=O)CC[C@H](NC(=O)c2cccc(NC(=O)N[C@@H]3CN(C4CCCCC4)c4ccccc4N(CC(=O)C(C)(C)C)C3=O)c2)C(=O)O)C(=O)O)C(=O)N[C@@H](Cc2ccc(O)cc2)C(=O)N[C@H](Cc2c[nH]c3ccccc23)C(=O)N[C@@H](CCCCN)C(=O)N[C@@H]([C@@H](C)O)C(=O)N1)C(=O)O (stereo partly drawn) [Compound I-17, (Z360)- gE- gE- OEG- OEG- K(DOTAGA)- OEG- OEG- f[CYwKTC]T- OH (]	–	–	–
1.36	1.7	C[C@@H](O)[C@H](NC(=O)[C@@H]1CSSC[C@H](NC(=O)[C@@H](Cc2ccccc2)NC(=O)COCCOCCNC(=O)COCCOCCNC(=O)COCCOCCNC(=O)[C@H](CCCCNC(=O)c2cccc(NC(=O)N[C@@H]3CN(C4CCCCC4)c4ccccc4N(CC(=O)C(C)(C)C)C3=O)c2)NC(=O)CN2CCN(CC(=O)O)CCN(CC(=O)O)CCN(CC(=O)O)CC2)C(=O)N[C@@H](Cc2ccc(O)cc2)C(=O)N[C@H](Cc2c[nH]c3ccccc23)C(=O)N[C@@H](CCCCN)C(=O)N[C@@H]([C@@H](C)O)C(=O)N1)C(=O)O [Compound I-45, DOTA-K(Z360)-OEG-OEG-OEG-f[CYwKTC]T-OH]	–	–	IC50 [2]: 2.07 nM; IC50 [3]: 9.9 nM
20.7	1.8	C[C@@H](O)[C@H](NC(=O)[C@@H]1CSSC[C@H](NC(=O)[C@@H](Cc2ccccc2)NC(=O)COCCOCCNC(=O)[C@H](CCCCNC(=O)CC[C@H](NC(=O)CNC(=O)c2cccc(NC(=O)NC3CN(C4CCCCC4)c4ccccc4N(CC(=O)C(C)(C)C)C3=O)c2)C(=O)O)NC(=O)COCCOCCNC(=O)COCCOCCNC(=O)[C@@H](N)CCCCNC(=O)[C@@H](N)CCCCNC(=O)CN2CCN(CC(=O)O)CCN(CC(=O)O)CCN(CC(=O)O)CC2)C(=O)N[C@@H](Cc2ccc(O)cc2)C(=O)N[C@H](Cc2c[nH]c3ccccc23)C(=O)N[C@@H](CCCCN)C(=O)N[C@@H]([C@@H](C)O)C(=O)N1)C(=O)O (stereo partly drawn) [Compound I-65, DOTA-eK-eK-OEG-OEG-K(-gE-G-Z360)-OEG-f[CYwKTC]T-OH]	–	–	IC50 [2]: 0.136 nM; IC50 [3]: 9.4 nM
